± gives the expanded uncertainty stated by the source.
## O=C1CCCCCN1 [1-aza-2-cycloheptanone]
293.43 K, Crystal, Calculated from knudsen effusion weight loss
  vapor or sublimation pressure: 0.000153 ± 9e-06 kPa
298.39 K, Crystal, Calculated from knudsen effusion weight loss
  vapor or sublimation pressure: 0.000275 ± 1.7e-05 kPa
302.3 K, Crystal, Transpiration method
  vapor or sublimation pressure: 0.00043 ± 3e-05 kPa
303.32 K, Crystal, Calculated from knudsen effusion weight loss
  vapor or sublimation pressure: 0.000474 ± 2.9e-05 kPa
305.4 K, Crystal, Transpiration method
  vapor or sublimation pressure: 0.00066 ± 4e-05 kPa
306.2 K, Crystal, Transpiration method
  vapor or sublimation pressure: 0.0007 ± 4e-05 kPa
308.31 K, Crystal, Calculated from knudsen effusion weight loss
  vapor or sublimation pressure: 0.000813 ± 5.1e-05 kPa
308.38 K, Crystal, Calculated from knudsen effusion weight loss
  vapor or sublimation pressure: 0.000858 ± 5.4e-05 kPa
309.2 K, Crystal, Transpiration method
  vapor or sublimation pressure: 0.00093 ± 6e-05 kPa
312.2 K, Crystal, Transpiration method
  vapor or sublimation pressure: 0.00127 ± 8e-05 kPa
313.22 K, Crystal, Calculated from knudsen effusion weight loss
  vapor or sublimation pressure: 0.00143 ± 0.00013 kPa
314.7 K, Crystal, Transpiration method
  vapor or sublimation pressure: 0.00175 ± 0.00011 kPa
316.7 K, Crystal, Transpiration method
  vapor or sublimation pressure: 0.0021 ± 0.00013 kPa
318.09 K, Crystal, Calculated from knudsen effusion weight loss
  vapor or sublimation pressure: 0.00235 ± 0.00023 kPa
321.1 K, Crystal, Transpiration method
  vapor or sublimation pressure: 0.00327 ± 0.0002 kPa
321.3 K, Crystal, Transpiration method
  vapor or sublimation pressure: 0.00365 ± 0.00023 kPa
322.98 K, Crystal, Calculated from knudsen effusion weight loss
  vapor or sublimation pressure: 0.00393 ± 0.00041 kPa
323.06 K, Crystal, Calculated from knudsen effusion weight loss
  vapor or sublimation pressure: 0.00379 ± 0.0004 kPa
323.9 K, Crystal, Transpiration method
  vapor or sublimation pressure: 0.00427 ± 0.00026 kPa
326.3 K, Crystal, Transpiration method
  vapor or sublimation pressure: 0.00568 ± 0.00035 kPa
327.93 K, Crystal, Calculated from knudsen effusion weight loss
  vapor or sublimation pressure: 0.00636 ± 0.00071 kPa
328 K, Crystal, Calculated from knudsen effusion weight loss
  vapor or sublimation pressure: 0.0061 ± 0.00068 kPa
328.3 K, Crystal, Transpiration method
  vapor or sublimation pressure: 0.00668 ± 0.00041 kPa
330.2 K, Crystal, Transpiration method
  vapor or sublimation pressure: 0.00801 ± 0.00049 kPa
332.89 K, Crystal, Calculated from knudsen effusion weight loss
  vapor or sublimation pressure: 0.01 ± 0.0012 kPa
332.93 K, Crystal, Calculated from knudsen effusion weight loss
  vapor or sublimation pressure: 0.0105 ± 0.0012 kPa
333.2 K, Crystal, Transpiration method
  vapor or sublimation pressure: 0.01064 ± 0.00065 kPa
336.3 K, Crystal, Transpiration method
  vapor or sublimation pressure: 0.01422 ± 0.00087 kPa
337.4 K, Crystal, Transpiration method
  vapor or sublimation pressure: 0.01727 ± 0.0011 kPa
337.82 K, Crystal, Calculated from knudsen effusion weight loss
  vapor or sublimation pressure: 0.0155 ± 0.0019 kPa
339 K, Crystal, Transpiration method
  vapor or sublimation pressure: 0.01833 ± 0.0011 kPa
345.2 K, Liquid, Transpiration method
  vapor or sublimation pressure: 0.0319 ± 0.002 kPa
345.8 K, Liquid, Transpiration method
  vapor or sublimation pressure: 0.0322 ± 0.002 kPa
347.8 K, Liquid, Transpiration method
  vapor or sublimation pressure: 0.0376 ± 0.0023 kPa
350.9 K, Liquid, Transpiration method
  vapor or sublimation pressure: 0.0457 ± 0.0028 kPa
353.9 K, Liquid, Transpiration method
  vapor or sublimation pressure: 0.0564 ± 0.0035 kPa
355.4 K, Liquid, Transpiration method
  vapor or sublimation pressure: 0.0612 ± 0.0037 kPa
357 K, Liquid, Transpiration method
  vapor or sublimation pressure: 0.071 ± 0.0043 kPa
359.1 K, Liquid, Transpiration method
  vapor or sublimation pressure: 0.0758 ± 0.0046 kPa
360.2 K, Liquid, Transpiration method
  vapor or sublimation pressure: 0.089 ± 0.0055 kPa
362.1 K, Liquid, Transpiration method
  vapor or sublimation pressure: 0.0992 ± 0.0061 kPa
363.1 K, Liquid, Transpiration method
  vapor or sublimation pressure: 0.103 ± 0.0063 kPa
364.9 K, Liquid, Transpiration method
  vapor or sublimation pressure: 0.1189 ± 0.0073 kPa
366.3 K, Liquid, Transpiration method
  vapor or sublimation pressure: 0.1294 ± 0.0079 kPa
369.7 K, Liquid, Transpiration method
  vapor or sublimation pressure: 0.16 ± 0.0098 kPa
372.2 K, Liquid, Transpiration method
  vapor or sublimation pressure: 0.1866 ± 0.011 kPa
